According to patent US9439976B2, “Compositions and methods for using cathepsin E cleavable substrates” (The Methodist Hospital System, priority 2013, dated 2016):
Where a SMILES comes first, the peptide text is derived from it. The star is where a group is joined. X1 = O=C(O)CCC(=O)CN*

How the values were obtained:
MPanc96-CTSE cells [1] = assay type: cell-based; details: human
Method: To determine the number of viable cells after light treatment, a homogeneous colorimetric method, the MTS Cell cytotoxicity assay (Cell Titer 96® Aqueous, Promega, Madison, Wis.) was used. MPanc96-CTSE and MPanc96-FG30 (2×10^4) cells were incubated with various concentrations (0.1, 0.5, 1, and 5 μM) of the 5-ALA prodrug for 30 minutes, followed by treatment with a range of light doses (2.5, 5, 10, and 15 J/cm^2) and incubated overnight at 37° C. and 5% CO2 in 96-well plates. Cells treated only with light or the 5-ALA prodrug were used as negative controls. […] The formation of colored formazan was measured directly in 96-well assay plates at 490 nm absorbance without additional processing. […] After PDT, MPanc96-CTSE cells were washed with PBS buffer, treated with 1 μL YO-PRO-1 and PI stock solution per milliliter medium and incubated on ice for 25 minutes, followed by fluorescence imaging using an inverted epifluorescence microscope. […]
To quantitate cell viability upon photodynamic treatment with the 5-ALA prodrug, PDAC cells were subjected to homogeneous, colorimetric MTS cytotoxicity assay. […] After incubating PDAC cells with the tetrazolium compound, living PDAC cells in culture were quantified directly by measuring the absorbance of the produced formazan product at 490 nm.

MPanc96-CTSE cells [2] = assay: Cellular release of 5-ALA, PpIX fluorescence imaging, Cath E-high cells; assay type: cell-based, human; details: unfixed MPanc96-CTSE cells, 0.5 μM, 37° C.
Method: Mpanc96-CTSE and Mpanc96-FG30 cells (1.2×10^4) were treated in 96-well plates with various concentrations (0.1, 0.5, 1, and 5 μM in 100 μL) of 5-ALA prodrug, incubated for 30 minutes at 37° C., and washed several times with PBS. Fluorescence images of the cells were acquired using an inverted epifluorescence microscope and a TRITC (tetramethyl rhodamine isothiocyanate) filter (λex=557 nm and λem=576 nm). Free 5-ALA and untreated cells were included as controls. The possible light damage done in the absence of photosensitizer was evaluated by irradiating Cath E-positive Mpanc96-CTSE cells with various doses (2.5, 5, 10, 15, and 18 J/cm^2) of light using a diode laser system (652 nm; B&W TEK, Newark, Del.). Phototoxicity of the 5-ALA prodrug was assessed by incubating Mpanc96-CTSE and Mpanc96-FG30 cells in 96-well plates with 0.1 μM 5-ALA prodrug for 30 minutes at 37° C. The cells were washed several times with PBS, the medium was replaced with growth medium, and the cells were treated with a single dose of 10 J/cm2. After PDT, the treated cells and controls were incubated overnight followed by imaging to detect changes in cell morphology.

[3] = test system: PDAC (p53 conditional deletion/LSL-KrasG12D/Pdx1-Cre); assay: In vivo photodynamic therapy, TUNEL staining of PDAC pancreas in genetically engineered mice; parameters: species or system mouse; details: mice with PDAC, 1 mg 5-ALA equivalent/kg i.v., 10 J/cm^2 light at 652 nm 1 hour after injection, tissue 24 hours later
Method: All animal studies were performed in compliance with the approved animal protocols and guidelines of Institutional Animal Care and Use Committee of University of Texas MD Anderson Cancer Center. […] Littermates without PDAC served as controls. LSL-KRasG12D, p53-floxed, and Pdx-1-Cre genetic mice were obtained from the Mouse Models for Human Cancer Consortium Repository (Rockville, Md.). Mice were divided into three groups of five transgenic mice with PDAC tumors and three normal littermate controls. Mice were injected with a single dose of saline, free 5-ALA, or the 5-ALA prodrug (1 mg 5-ALA equivalent/kg, 50 μL) intravenously through the tail vein using a 30 gauge needle. Mice were incubated for 60 minutes in a full metabolically active environment and anesthetized by intraperitoneal injection of sodium pentobarbital, at a dose of 50-90 mg/kg diluted to 6 mg/ml. The pancreas was exposed through a left abdominal incision (1 cm, laparotomy) and treated with a 10-J/cm^2 dose of light using a diode laser (652 nm) and incidence fluence rate of 50 mW/cm^2 for 3.5 minutes. After PDT, the pancreas was carefully returned to the peritoneal cavity and the abdomen was closed. One day after light treatment, animals were sacrificed and the pancreases were harvested for subsequent evaluation. […]

Row | Compound | Cell viability (MTS) (MPanc96-CTSE cells [1]) | PpIX fluorescence signal in cells (TRITC channel) (MPanc96-CTSE cells [2]) | Apoptosis in PDAC tissue sections (TUNEL) [3]
1 | CC(C)C[C@H](NC(=O)[C@H](CO)NC(=O)[C@H](Cc1ccccc1)NC(=O)CNC(=O)[C@H](C)NC(=O)[C@H](CCC(N)=O)NC(=O)[C@@H](N)CCCNC(=N)N)C(=O)NCC(=O)CCC(=O)O [5-ALA prodrug, H-Arg-Gln-Ala-Gly-Phe-Ser-Leu-5-ALA-OH] (H-RQAGFSL-X1) | approximately 20% |  | 
2 | NCC(=O)CCC(=O)O [free 5-ALA, 5-aminolevulinic acid] |  | comparable | multiple apoptotic cells
